Assay results reported in US6468476B1, “Methods for using-co-regulated genesets to enhance detection and classification of gene expression patterns” (Rosetta Inpharmatics, Inc., priority 1998, dated 2002).

System: genesets (calcineurin-mediated, Gcn4-mediated)
Assay: Response profiles projected onto genesets defined by cluster analysis of 34 experiments
Format: cell-based, Saccharomyces cerevisiae
Conditions: HU at 3.1 mM
Procedure: Yeast (Saccharomyces cerevisiae, Strain YPH499, see, Sikorski and Hieter, 1989, A system of shuttle vectors and yeast host strains designated for efficient manipulation of DNA in Saccharomyces cerevisiae, Genetics 122:19-27) cells were grown in YAPD at 30° C. to an OD600 of 1.0 (±0.2), and total RNA prepared by breaking cells in phenol/chloroform and 0.1% SDS by standard procedures (Ausubel et al., 1995, Current Protocols in Molecular Biology, Greene Publishing and Wiley-Interscience, New York, Ch. 13). Poly(A)^+ RNA was selected by affinity chromatography on oligo-dT cellulose (New England Biolabs) essentially as described in Sambrook et al. (Molecular Cloning—A Laboratory Manual (2nd Ed.), Vol. 1, Cold Spring Harbor Laboratory, Cold Spring Harbor, N.Y., 1989). First strand cDNA synthesis was carried out with 2 μg poly(A)^+ RNA and SuperScript™ II reverse transcriptase (Gibco-BRL) according to the manufacturer's instructions with the following modifications. […]
Fluorescently-labeled cDNAs (2-6 μg) are resuspended in 4×SSC plus 1 μg/μl tRNA as carrier and filtered using […] filters (Millipore, Bedford, Mass.). […] Microarrays are scanned with a fluorescence laser-scanning device as previously described (Schena et al., 1995, Science 270:467-470; Schena et al., 1995, Proc. Natl. Acad. Sci. USA 93:[…]) and the results (including the positions of perturbations) are recorded. […]

## NC(=O)NO [HU, Hydroxyurea]
  Projected profile: very weak
